Laboratory results published in patent publication US20260035340A1, “INHIBITORS OF AKR1C3 AND METHODS OF USE” (BOARD OF REGENTS OF THE UNIVERSITY OF NEBRASKA, priority 2022, published 2026).
Where two headings read alike, the source gives them in different places.

Key:
Assay type in all cases: biochemical
[1] = biological target: AKR1C2 (Homo sapiens (Human), UniProt P52895); test: AKR enzyme inhibition assay, NADP+ dependent oxidation of S-tetralol, AKR1C2 counter-screen
Method: (§1) Structure-Activity Relationship: The ability of compounds to inhibit AKR1C3 in the first instance were determined by measuring the NADP+ dependent oxidation of S-tetralol catalyzed by recombinant enzyme as described herein. […] Assay of enzyme activity: The dehydrogenase activities of AKR1C1, AKR1C2, and AKR1C3 were determined by measuring the formation of NADH formation at 340 nm using Beckman DU640 spectrophotometer. […] After continuously monitoring for 5 min, the increase in UV absorption using different concentrations of enzyme were recorded to calculate the initial velocity and determine enzyme specific activity. IC50 value determination: The inhibitory potency for each compound was represented by IC50 value and measured as described before. […] The concentration of S-tetralol used in the assays for each AKR1C isoform was equal to the Km value for the respective enzyme so that IC50 values could be directly compared assuming a competitive pattern of inhibition. […] In this equation, “range” is the fitted uninhibited value minus the “background”, and “S” is a slope factor. “I” is the concentration of inhibitor. The equation assumes that y falls with increasing “I”.

[2] = biological target: AKR1C1 (Homo sapiens (Human), UniProt Q04828); test: AKR enzyme inhibition assay, NADP+ dependent oxidation of S-tetralol, AKR1C1; details: Table 2; recombinant enzyme, S-tetralol at Km; read-out: IC50 ± SD AKR1C1
AKR1C1, sequence (Q04828 whole entry): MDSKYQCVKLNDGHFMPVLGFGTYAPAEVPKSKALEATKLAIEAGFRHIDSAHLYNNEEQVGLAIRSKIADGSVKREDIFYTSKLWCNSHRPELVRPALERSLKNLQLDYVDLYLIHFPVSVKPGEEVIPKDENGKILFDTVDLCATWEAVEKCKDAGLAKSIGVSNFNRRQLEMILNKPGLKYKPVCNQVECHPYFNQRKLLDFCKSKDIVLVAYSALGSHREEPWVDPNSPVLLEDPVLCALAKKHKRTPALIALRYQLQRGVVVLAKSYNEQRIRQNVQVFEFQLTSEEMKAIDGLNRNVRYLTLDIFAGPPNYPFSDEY
Method: (§2) Assay of enzyme activity: The dehydrogenase activities of AKR1C1, AKR1C2, and AKR1C3 were determined by measuring the formation of NADH formation at 340 nm using Beckman DU640 spectrophotometer. […] After continuously monitoring for 5 min, the increase in UV absorption using different concentrations of enzyme were recorded to calculate the initial velocity and determine enzyme specific activity. IC50 value determination: The inhibitory potency for each compound was represented by IC50 value and measured as described before. […] The concentration of S-tetralol used in the assays for each AKR1C isoform was equal to the Km value for the respective enzyme so that IC50 values could be directly compared assuming a competitive pattern of inhibition. […] In this equation, “range” is the fitted uninhibited value minus the “background”, and “S” is a slope factor. “I” is the concentration of inhibitor. The equation assumes that y falls with increasing “I”.

[3] = biological target: AKR1C4 (Homo sapiens (Human), UniProt P17516); test: AKR enzyme inhibition assay, AKR1C4; details: Table 2; recombinant enzyme; read-out: IC50 ± SD AKR1C4
AKR1C4, sequence (P17516 whole entry): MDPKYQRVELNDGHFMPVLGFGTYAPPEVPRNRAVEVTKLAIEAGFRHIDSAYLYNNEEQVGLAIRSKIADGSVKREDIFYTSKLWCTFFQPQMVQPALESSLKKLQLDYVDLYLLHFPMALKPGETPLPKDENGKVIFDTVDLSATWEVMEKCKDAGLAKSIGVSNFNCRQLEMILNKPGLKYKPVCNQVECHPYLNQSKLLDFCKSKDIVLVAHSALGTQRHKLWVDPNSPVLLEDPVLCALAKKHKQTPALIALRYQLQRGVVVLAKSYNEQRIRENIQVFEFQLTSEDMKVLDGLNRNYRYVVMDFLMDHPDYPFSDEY
Method: as §2

[4] = biological target: AKR1C3 (Homo sapiens (Human), UniProt P42330); test: AKR enzyme inhibition assay, NADP+ dependent oxidation of S-tetralol, AKR1C3; details: for selectivity over AKR1C2: AKR1C3 over AKR1C2; for Selectivity 1C2:1C3: ratio of AKR1C2 to AKR1C3 IC50
AKR1C3, sequence (P42330 whole entry): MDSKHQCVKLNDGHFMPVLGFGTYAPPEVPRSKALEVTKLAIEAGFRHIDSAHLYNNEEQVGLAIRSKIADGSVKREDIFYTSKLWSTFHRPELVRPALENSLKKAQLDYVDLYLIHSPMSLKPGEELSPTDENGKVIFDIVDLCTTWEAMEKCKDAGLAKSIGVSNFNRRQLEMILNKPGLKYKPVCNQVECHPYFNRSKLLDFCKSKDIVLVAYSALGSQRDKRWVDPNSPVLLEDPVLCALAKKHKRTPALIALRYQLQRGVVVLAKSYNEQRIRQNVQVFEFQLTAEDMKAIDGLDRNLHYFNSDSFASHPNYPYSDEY
Method: as §1

[5] = Table 2, recombinant enzyme, S-tetralol at Km, read-out: IC50 ± SD AKR1C2
[6] = Table 2, recombinant enzyme, S-tetralol at Km, read-out: IC50 ± SD AKR1C3
[7] = Table 3, compounds of formula (A4), read-out: IC50 AKR1C3
[8] = Table 4, compounds of formula (A3), read-out: IC50 AKR1C3

AKR1C2, sequence (P52895 whole entry): as the sequence (Q04828 whole entry) above, with T38V, R47H, L54V, C87S, V151M, R170H, Q172L counted along it

Compound	IC50 [1, 5]	IC50 [3]	IC50 [4, 6]	IC50 ([4]; read-out: IC50 AKR1C3)	other results
Cc1ccc(CNC(=O)c2cc(/C=C/C(=O)O)cc(-c3ccc4c(c3)OCO4)c2)cc1 [Compound A1-t, (E)-3-(3-(Benzo[d][1,3]dioxol-5-yl)-5-((4-methylbenzyl)carbamoyl)phenyl)acrylic acid]	36 ± 9.7 µM	16 ± 1.6 µM		0.11 µM	IC50 [2]: > 100 µM
Cc1ccc(CNC(=O)c2cc(Br)cc(/C=C/C#N)c2)cc1 [Compound 15, (E)-3-Bromo-5-(2-cyanovinyl)-N-(4-methylbenzyl)benzamide]				0.17 µM	
Cc1ccc(CNC(=O)c2cc(C#CC3CC3)cc(/C=C/C(=O)O)c2)cc1 [Compound A1-bb, (E)-3-(3-(Cyclopropylethynyl)-5-((4-methylbenzyl)carbamoyl)phenyl)acrylic acid]	37 ± 9.6 µM		0.5 ± 0.04 µM		selectivity over AKR1C2 [4]: 74 fold
Cc1ccc(CNC(=O)c2cc(/C=C/C(=O)O)cc(-c3ccc(Br)cc3)c2)cc1 [Compound A1-b, (E)-3-(4′-Bromo-5-((4-methylbenzyl)carbamoyl)-[1,1′-biphenyl]-3-yl)acrylic acid]	25 ± 7 µM	6.5 ± 0.6 µM		0.09 µM	IC50 [2]: 107 ± 8 µM
CC(C)=CCc1cc(/C=C/C#N)cc(C(=O)NCc2ccc(C)cc2)c1 [Compound 16b, (E)-3-(2-Cyanovinyl)-N-(4-methylbenzyl)-5-(3-methylbut-2-en-1-yl)benzamide]				2.7 µM	IC50 [4, 7]: 2.7 ± 0.37 µM
COC(=O)/C=C/c1cc(Br)cc(C(=O)NCc2ccc(C)cc2)c1 [Compound 3]				0.2 µM	
CC(C)=CCOc1cc(/C=C/C(=O)O)cc(C(=O)NCc2ccc(C)cc2)c1 [Compound 10, (E)-3-(3-((4-Methylbenzyl)carbamoyl)-5-((3-methylbut-2-en-1-yl)oxy)phenyl)acrylic acid]	15 ± 2.4 µM	31 ± 5 µM	0.08 ± 0.01 µM		IC50 [2]: 52 ± 7 µM; Selectivity 1C2:1C3 ([4]; Table 2): 187
Cc1ccc(CNC(=O)c2cc(Br)cc(/C=C/C(=O)N(C)C)c2)cc1 [Compound 14, (E)-3-Bromo-5-(3-(dimethylamino)-3-oxoprop-1-en-1-yl)-N-(4-methylbenzyl)benzamide]				0.4 µM	increased activity over terminal primary amide 12 ([4]; AKR1C3 inhibition): > 66 fold
Cc1ccc(CNC(=O)c2cc(/C=C/C(N)=O)cc(-c3ccc(Oc4ccccc4)cc3)c2)cc1 [Compound 13, (E)-5-(3-Amino-3-oxoprop-1-en-1-yl)-N-(4-methylbenzyl)-4′-phenoxy-[1,1′-biphenyl]-3-carboxamide]				2.7 µM	
C/C=C\Cc1cc(/C=C/C(=O)O)cc(C(=O)NCc2ccc(C)cc2)c1 [Compound A1-aa, (E)-3-(3-((Z)-but-2-en-1-yl)-5-((4-methylbenzyl)carbamoyl)phenyl)acrylic acid]	16 ± 2.5 µM	25 ± 3.1 µM	0.08 ± 0.004 µM		IC50 [2]: 81 ± 5.1 µM; selectivity over AKR1C2 [4]: 200 fold
Cc1ccc(CNC(=O)c2cc(Br)cc(/C=C/C(N)=O)c2)cc1 [Compound 12, (E)-3-(3-Amino-3-oxoprop-1-en-1-yl)-5-bromo-N-(4-methylbenzyl)benzamide]					IC50 [4, 7]: 28 ± 2.9 µM
CC[C@@H](NC(=O)c1cc(/C=C/C(=O)O)cc(-c2ccc(C(C)C)cc2)c1)c1ccccc1 [Compound 20a, (R,E)-3-(4′-Isopropyl-5-((1-phenylpropyl)carbamoyl)-[1,1′-biphenyl]-3-yl)acrylic acid]					IC50 ([1]; Table 4, compounds of formula (A3), read-out: IC50 AKR1C2): 6 ± 1.4 µM; IC50 [4, 8]: 0.12 ± 0.014 µM; Selectivity 1C2:1C3 ([4]; Table 4): 51
Cc1ccc(CNC(=O)c2cc(/C=C/C#N)cc(-c3ccc(Oc4ccccc4)cc3)c2)cc1 [Compound 16a, (E)-5-(2-Cyanovinyl)-N-(4-methylbenzyl)-4′-phenoxy-[1,1′-biphenyl]-3-carboxamide]				1.4 µM	IC50 [4, 7]: 1.4 ± 0.3 µM
CC[C@@H](NC(=O)c1cc(/C=C/C(=O)O)cc(-c2ccc(Oc3ccccc3)cc2)c1)c1ccccc1 [Compound 20b, (R,E)-3-(4′-Phenoxy-5-((1-phenylpropyl)carbamoyl)-[1,1′-biphenyl]-3-yl)acrylic acid]					IC50 [4, 8]: 0.26 ± 0.0166 µM

Continued, in another order:

IC50 [1, 5]	IC50 [3]	IC50 [4, 6]	IC50 ([4]; read-out: IC50 AKR1C3)	Compound	other results
48 ± 16 µM	16.4 ± 2 µM	0.05 ± 0.004 µM		Cc1ccc(CNC(=O)c2cc(/C=C/C(=O)O)cc(-c3cccc(F)c3)c2)cc1 [Compound A1-f, (E)-3-(3′-Fluoro-5-((4-methylbenzyl)carbamoyl)-[1,1′-biphenyl]-3-yl)acrylic acid]	IC50 [2]: > 100 µM; selectivity over AKR1C2 [4]: 960 fold
			0.13 µM	Cc1ccc(CNC(=O)c2cc(/C=C/C(=O)O)cc(-c3ccc(F)cc3F)c2)cc1 [Compound A1-g, (E)-3-(2′,4′-Difluoro-5-((4-methylbenzyl)carbamoyl)-[1,1′-biphenyl]-3-yl)acrylic acid]	
29 ± 4.8 µM	2.4 ± 0.15 µM	0.05 ± 0.004 µM		Cc1ccc(CNC(=O)c2cc(/C=C/C(=O)O)cc(-c3ccc(-c4ccccc4)cc3)c2)cc1 [Compound A1-u, (E)-3-(5-((4-Methylbenzyl)carbamoyl)-[1,1′:4′,1″-terphenyl]-3-yl)acrylic acid]	Selectivity 1C2:1C3 ([4]; Table 2): 580
36 ± 4 µM	8 ± 1.2 µM		0.06 µM	Cc1ccc(CNC(=O)c2cc(/C=C/C(=O)O)cc(-c3ccc(F)cc3)c2)cc1 [Compound A1-d, (E)-3-(4′-Fluoro-5-((4-methylbenzyl)carbamoyl)-[1,1′-biphenyl]-3-yl)acrylic acid]	IC50 [2]: > 100 µM; Selectivity 1C2:1C3 ([4]; Table 2): 600
		0.17 ± 0.01 µM		Cc1ccc(CNC(=O)c2cc(/C=C/C(=O)O)cc(-c3ccc(C#N)cc3)c2)cc1 [Compound A1-m, (E)-3-(4′-Cyano-5-((4-methylbenzyl)carbamoyl)-[1,1′-biphenyl]-3-yl)acrylic acid]	
		0.17 ± 0.03 µM		COc1ccc(-c2cc(/C=C/C(=O)O)cc(C(=O)NCc3ccc(C)cc3)c2)cc1 [Compound A1-l, (E)-3-(4′-Methoxy-5-((4-methylbenzyl)carbamoyl)-[1,1′-biphenyl]-3-yl)acrylic acid]	
> 100 µM	15.4 ± 1.7 µM	0.07 ± 0.009 µM		Cc1ccc(CNC(=O)c2cc(/C=C/C(=O)O)cc(-c3ccccc3F)c2)cc1 [Compound A1-e, (E)-3-(2′-Fluoro-5-((4-methylbenzyl)carbamoyl)-[1,1′-biphenyl]-3-yl)acrylic acid]	IC50 [2]: > 100 µM; Selectivity 1C2:1C3 ([4]; Table 2): >1430
11 ± 3.1 µM		0.18 ± 0.019 µM		Cc1ccc(CNC(=O)c2cc(C#Cc3ccccc3)cc(/C=C/C(=O)O)c2)cc1 [Compound A1-w, (E)-3-(3-((4-methylbenzyl)carbamoyl)-5-(phenylethynyl)phenyl)acrylic acid]	selectivity over AKR1C2 [4]: 61 fold
		0.2 ± 0.02 µM		Cc1ccc(CNC(=O)c2cc(/C=C/C(=O)O)cc(-c3ccc(C(F)(F)F)cc3)c2)cc1 [Compound A1-h, (E)-3-(5-((4-Methylbenzyl)carbamoyl)-4′-(trifluoromethyl)-[1,1′-biphenyl]-3-yl)acrylic acid]	
> 100 µM	21 ± 2.5 µM		0.04 µM	Cc1ccc(CNC(=O)c2cc(/C=C/C(=O)O)cc(-c3ccccc3)c2)cc1 [Compound A1-a, (E)-3-(5-((4-Methylbenzyl)carbamoyl)-[1,1′-biphenyl]-3-yl)acrylic acid]	IC50 [2]: > 100 µM; selectivity over AKR1C2 [4]: > 2320 fold; Selectivity 1C2:1C3 ([4]; Table 2): >2500
12.5 ± 2.1 µM	31 ± 2.9 µM		0.094 µM	Cc1ccc(CNC(=O)c2cc(/C=C/C(=O)O)cc(-c3ccc4nccnc4c3)c2)cc1 [Compound A1-q, (E)-3-(3-((4-Methylbenzyl)carbamoyl)-5-(quinoxalin-6-yl)phenyl)acrylic acid]	IC50 [2]: 70 ± 48 µM; Selectivity 1C2:1C3 ([4]; Table 2): 133
> 100 µM	40 ± 1.3 µM	0.3 ± 0.01 µM		Cc1ccc(CNC(=O)c2cc(Br)cc(/C=C/C(=O)O)c2)cc1 [Compound 11, (E)-3-(3-Bromo-5-((4-methylbenzyl)carbamoyl)phenyl)acrylic acid]	Selectivity 1C2:1C3 ([4]; Table 2): >333
156 ± 71 µM			0.88 µM	Cc1ccc(CNC(=O)c2cc(/C=C/C(=O)O)cc(CC(C)c3ccccc3)c2)cc1 (stereo not drawn) [Compound A1-x, (E)-3-(3-((4-Methylbenzyl)carbamoyl)-5-(2-phenylpropyl)phenyl)acrylic acid]	selectivity over AKR1C2 [4]: 177 fold
		0.19 ± 0.01 µM		CCc1ccc(-c2cc(/C=C/C(=O)O)cc(C(=O)NCc3ccc(C)cc3)c2)cc1 [Compound A1-j, (E)-3-(4′-Ethyl-5-((4-methylbenzyl)carbamoyl)-[1,1′-biphenyl]-3-yl)acrylic acid]	
			0.19 µM	Cc1ccc(CNC(=O)c2cc(/C=C/C(=O)O)cc(-c3ccc(C(C)C)cc3)c2)cc1 [Compound A1-k, (E)-3-(4′-Isopropyl-5-((4-methylbenzyl)carbamoyl)-[1,1′-biphenyl]-3-yl)acrylic acid]	
5.1 ± 0.6 µM			0.33 µM	Cc1ccc(CNC(=O)c2cc(/C=C/C(=O)O)cc(-c3ccc(CN4CCOCC4)c(F)c3)c2)cc1 [Compound A1-y, (E)-3-(3′-Fluoro-5-((4-methylbenzyl)carbamoyl)-4′-(morpholinomethyl)-[1,1′-biphenyl]-3-yl)acrylic acid]	selectivity over AKR1C2 [4]: 16 fold
4.8 ± 1.2 µM		0.094 ± 0.01 µM		Cc1ccc(CNC(=O)c2cc(/C=C/C(=O)O)cc(-c3ccc(Oc4ccccc4)cc3)c2)cc1 [Compound A1-n, (E)-3-(5-((4-Methylbenzyl)carbamoyl)-4′-phenoxy-[1,1′-biphenyl]-3-yl)acrylic acid]	selectivity over AKR1C2 [4]: 51 fold
